14 molecules from patent publication US8642585B2, “Indanyloxydihydrobenzofuranylacetic acids” (Boehringer Ingelheim International GmbH, priority 2012, dated 2014) can be followed below.

The target of this test is human GPR40 receptor (Homo sapiens, UniProt O14842). As to the kind of experiment: Assay I: IP1 accumulation (IPOne HTRF) in 1321N1 cells stably expressing human GPR40. As to conditions: 1321N1 cells expressing human GPR40, stimulation 1 hour at 37° C., 10% CO2, final LiCl 50 mM. The class given is cell-based. How it is done: IP1 accumulation measurements using the IPOne assay system—1321N1 cells stably expressing human GPR40 receptor (Euroscreen, Belgium) are seeded 24 h before the assay in black clear-bottom collagen-coated 384-well plates in culture medium containing 10% FCS, 1% Na-Pyruvate and 400 μg/mL G418. IP1 is assayed according to the Manufacturers description (Cisbio Bioassays, France). In brief, the assay is started by substitution of the culture medium by stimulation buffer (Hepes 10 mM, CaCl2 1 mM, MgCl2 0.5 mM, KCl 4.2 mM, NaCl 146 mM and glucose 5.5 mM, pH 7.4) without LiCl. Cells are stimulated for 1 hour at 37° C., 10% CO2 by addition of the compounds that are diluted in stimulation buffer containing LiCl yielding a final LiCl concentration of 50 mM. Assays are stopped by adding HTRF-conjugates (IP1-d2 and Anti-IP1 cryptate Tb) and lysis buffer, provided by the manufacturer. After an incubation time of 1 hour at room temperature plates are measured using an EnVision™, Perkin Elmer. The obtained fluorescence ratios at 665/615 nM are then used to calculate the pEC50 values using GraphPad Prism 5 (Graphpad Software Inc, USA) by interpolation using an IP1 reference curve and subsequent sigmoidal curve fitting allowing for a variable hill slope.
human GPR40 receptor, sequence (O14842 whole entry): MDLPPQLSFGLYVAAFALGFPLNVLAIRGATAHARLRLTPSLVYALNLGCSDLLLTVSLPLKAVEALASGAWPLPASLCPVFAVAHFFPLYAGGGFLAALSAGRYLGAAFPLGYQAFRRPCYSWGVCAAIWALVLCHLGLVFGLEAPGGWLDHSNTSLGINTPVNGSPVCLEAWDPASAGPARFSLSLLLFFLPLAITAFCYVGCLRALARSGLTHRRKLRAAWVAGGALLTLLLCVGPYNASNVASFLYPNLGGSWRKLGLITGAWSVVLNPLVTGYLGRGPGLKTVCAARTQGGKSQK
Background: Time-resolved FRET reads energy transfer from a long-lived donor to a nearby acceptor.

In general, EC50 refers to the concentration that produces a half-maximal response. A low value points to a more potent agent. In turn, `Cc1cc(OCC2CCN(S(C)(=O)=O)CC2)cc(C)c1-c1ccc(F)c2c1CC[C@H]2Oc1ccc2c(c1)OC[C@H]2CC(=O)O` [Example 35, 2-((S)-6-((R)-4-(2,6-Dimethyl-4-((1-(methylsulfonyl)piperidin-4-yl)methoxy)phenyl)-7-fluoro-2,3-dihydro-1H-inden-1-yloxy)-2,3-dihydrobenzofuran-3-yl)acetic acid] had an EC50 of 57 nM.

As to `Cc1c(OC2CCS(=O)(=O)CC2)cccc1-c1ccc(F)c2c1CC[C@H]2Oc1ccc2c(c1)OC[C@H]2CC(=O)O` [Example 38, ((S)-6-{(R)-4-[3-(1,1-Dioxo-hexahydro-1-thiopyran-4-yloxy)-2-methyl-phenyl]-7-fluoro-indan-1-yloxy}-2,3-dihydro-benzofuran-3-yl)-acetic acid], the EC50 turned out to be 76 nM. The EC50 values of the last two molecules are within 1.5-fold of each other.

`Cc1cc(OCC2(C)CN(S(C)(=O)=O)C2)cc(C)c1-c1ccc(F)c2c1CC[C@H]2Oc1ccc2c(c1)OC[C@H]2CC(=O)O` [Example 39, ((S)-6-{(R)-7-Fluoro-4-[4-(1-methanesulfonyl-3-methyl-azetidin-3-ylmethoxy)-2,6-dimethyl-phenyl]-indan-1-yloxy}-2,3-dihydro-benzofuran-3-yl)-acetic acid] came in with an EC50 of 8 nM. This EC50 lies about 9.5-fold lower than the previous one.

As for `COCCCS(=O)(=O)c1cc(C)c(-c2ccc(F)c3c2CC[C@H]3Oc2ccc3c(c2)OC[C@H]3CC(=O)O)c(C)c1` [Example 53, ((S)-6-{(R)-7-Fluoro-4-[4-(3-methoxy-propane-1-sulfonyl)-2,6-dimethyl-phenyl]-indan-1-yloxy}-2,3-dihydro-benzofuran-3-yl)-acetic acid], the EC50 was 1220 nM.

In turn, `Cc1cc(OCCCS(C)(=O)=O)cc(C)c1-c1ccc(F)c2c1CC[C@H]2Oc1ccc2c(c1)OC[C@H]2CC(=O)O` [Example 57, 2-((S)-6-((R)-4-(2,6-Dimethyl-4-(3-(methylsulfonyl)propoxy)phenyl)-7-fluoro-2,3-dihydro-1H-inden-1-yloxy)-2,3-dihydrobenzofuran-3-yl)acetic acid] registered an EC50 of 26 nM.

`Cc1c(OCCCS(C)(=O)=O)cccc1-c1ccc(F)c2c1CC[C@H]2Oc1ccc2c(c1)OC[C@H]2CC(=O)O` [Example 58, 2-((3S)-6-((1R)-7-Fluoro-4-(2-methyl-3-(3-(methylsulfonyl)propoxy)phenyl)-2,3-dihydro-1H-inden-1-yloxy)-2,3-dihydrobenzofuran-3-yl)acetic acid] registered an EC50 of 58 nM.

On to `Cc1c(C(N)=O)cccc1-c1ccc(F)c2c1CC[C@H]2Oc1ccc2c(c1)OC[C@H]2CC(=O)O` [Example 59, 2-((3S)-6-((1R)-4-(3-Carbamoyl-2-methylphenyl)-7-fluoro-2,3-dihydro-1H-inden-1-yloxy)-2,3-dihydrobenzofuran-3-yl)acetic acid], for which a half-maximal response (EC50) required 117 nM.

`Cc1cc(C(N)=O)cc(C)c1-c1ccc(F)c2c1CC[C@H]2Oc1ccc2c(c1)OC[C@H]2CC(=O)O` [Example 60, 2-((S)-6-((R)-4-(4-Carbamoyl-2,6-dimethylphenyl)-7-fluoro-2,3-dihydro-1H-inden-1-yloxy)-2,3-dihydrobenzofuran-3-yl)acetic acid] registered an EC50 of 26 nM.

In turn, `Cc1cc(C(=O)N(C)C)cc(C)c1-c1ccc(F)c2c1CC[C@H]2Oc1ccc2c(c1)OC[C@H]2CC(=O)O` [Example 61, 2-((S)-6-((R)-4-(4-(Dimethylcarbamoyl)-2,6-dimethylphenyl)-7-fluoro-2,3-dihydro-1H-inden-1-yloxy)-2,3-dihydrobenzofuran-3-yl)acetic acid] yielded an EC50 of 51 nM.

Consider `CNC(=O)c1cc(C)c(-c2ccc(F)c3c2CC[C@H]3Oc2ccc3c(c2)OC[C@H]3CC(=O)O)c(C)c1` [Example 62, 2-((S)-6-((R)-4-(2,6-Dimethyl-4-(methylcarbamoyl)phenyl)-7-fluoro-2,3-dihydro-1H-inden-1-yloxy)-2,3-dihydrobenzofuran-3-yl)acetic acid], for which the response was half-maximal at 11 nM (EC50).

In turn, `Cc1cc(C(=O)N2CCOCC2)cc(C)c1-c1ccc(F)c2c1CC[C@H]2Oc1ccc2c(c1)OC[C@H]2CC(=O)O` [Example 63, 2-((S)-6-((R)-4-(2,6-Dimethyl-4-(morpholine-4-carbonyl)phenyl)-7-fluoro-2,3-dihydro-1H-inden-1-yloxy)-2,3-dihydrobenzofuran-3-yl)acetic acid] had an EC50 of 38 nM.

Turning to `Cc1cc(OCCNC(=O)OC(C)(C)C)cc(C)c1-c1ccc(F)c2c1CC[C@H]2Oc1ccc2c(c1)OC[C@H]2CC(=O)O` [Example 65, 2-((S)-6-((R)-4-(4-(2-(tert-Butoxycarbonylamino)ethoxy)-2,6-dimethylphenyl)-7-fluoro-2,3-dihydro-1H-inden-1-yloxy)-2,3-dihydrobenzofuran-3-yl)acetic acid], the EC50 was determined as 34 nM.

In the case of `COc1cc(COc2cc(C)c(-c3ccc(F)c4c3CC[C@H]4Oc3ccc4c(c3)OC[C@H]4CC(=O)O)c(C)c2)ccn1` [Example 147, 2-((S)-6-((R)-7-fluoro-4-(4-((2-methoxypyridin-4-yl)methoxy)-2,6-dimethylphenyl)-2,3-dihydro-1H-inden-1-yloxy)-2,3-dihydrobenzofuran-3-yl)acetic acid], it took 2 nM to reach a half-maximal effect (EC50). This EC50 lies about 17-fold lower than the previous one.

`Cc1cc(OCc2ccnn2C)cc(C)c1-c1ccc(F)c2c1CC[C@H]2Oc1ccc2c(c1)OC[C@H]2CC(=O)O` [Example 151, 2-((S)-6-((R)-4-(2,6-dimethyl-4-((1-methyl-1H-pyrazol-5-yl)methoxy)phenyl)-7-fluoro-2,3-dihydro-1H-inden-1-yloxy)-2,3-dihydrobenzofuran-3-yl)acetic acid]: the EC50 is 3 nM. Against the preceding molecule, the EC50 is about 1.5-fold higher.
